2 compounds from patent US10336724B2, “D-amino acid oxidase inhibitors and therapeutic uses thereof” (SyneuRx International (Taiwan) Corp., priority 2017, dated 2019) can be followed below.

SMILES strings stand for the structures. Entries after “also recorded” stand apart in the source; their conditions may differ.

Assay [1] has as its system MK801-treated mice. The assay is described as follows: Pre-pulse inhibition (PPI) test, MK801-induced deficit of sensorimotor gating. The note with it: Example 1 446 or 892 mg/kg orally 20 min prior to MK801 0.2 mg/kg i.p.; each pre-pulse intensity. The class given is in vivo. How it is done:
The mice were group housed (3-5 mice per cage) with food and water available ad libitum in polysulfone ventilated cages (Alternative Design, AR, USA) in the animal rooms of the SyneuRx International (Taiwan) Corp. The colony was maintained on a 12/12-hr light/dark cycle at the temperature of 22±2° C. and all behavioral studies were performed during dark cycle. All animals used in this study were adult mice (at least 2.5 months of age). All animal procedures were performed according to the protocols approved by the Institutional Animal Care and Use Committee (IACUC). The mice were randomly assigned into four groups, Group 1: vehicle control, Group 2: MK801, Group 3: Example 1 at 446 mg/kg+MK801, Group 4: Example 1 at 892 mg/kg+MK801. […]
(§1) All mice in the experiments were tested by open field task and pre-pulse inhibition with at least 1-week interval between two tasks. […] The percentage of pre-pulse inhibition was calculated by the following formula: % PPI=100×[(PA score)−(pp-P score)]/(PA score), where the PA score was the average of the PA value in the middle blocks. […]

Assay [2] relates to MK801-treated mice. Briefly: Open field task, MK801-induced hyper-locomotion. The class given is in vivo. The following applies: Example 1 446 or 892 mg/kg orally 20 min prior to MK801 0.1 mg/kg i.p.; 120 minutes testing period. As to the method: (§2) The mice were placed in a Plexiglas cage (37.5 cm×21.5 cm×18 cm) under 50-65 lux light intensity, the spontaneous locomotion was measured for 120 minutes using the EthoVision video tracking system (Noldus Information Technology, the Netherlands). The travel distance of each mouse was measured as an index of spontaneous locomotion.
The mice were group housed (3-5 mice per cage) with food and water available ad libitum in polysulfone ventilated cages (Alternative Design, AR, USA) in the animal rooms of the SyneuRx International (Taiwan) Corp. The colony was maintained on a 12/12-hr light/dark cycle at the temperature of 22±2° C. and all behavioral studies were performed during dark cycle. All animals used in this study were adult mice (at least 2.5 months of age). All animal procedures were performed according to the protocols approved by the Institutional Animal Care and Use Committee (IACUC). […]
as §1

Assay [3] relates to mice. Briefly: Spontaneous locomotion in open field. It is filed as in vivo. The following applies: oral, 446 and 892 mg/kg, 120 minutes observation. As to the method: The mice were group housed (3-5 mice per cage) with food and water available ad libitum in polysulfone ventilated cages (Alternative Design, AR, USA) in the animal rooms of SyneuRx International (Taiwan) Corp. The colony was maintained on a 12/12-hr light/dark cycle at the temperature of 22±2° C. and all behavioral studies were performed during the dark cycle. All animals used in this study were adult mice (at least 2.5 months of age). All animal procedures were performed according to the protocols approved by Institutional Animal Care and Use Committee (IACUC).
The compound of Example 1 was placed into 100% PEG400, and was sonic vibrated until solution became clear. […]
Mice that received oral administration of either vehicle or low/high dose of the compound of Example 1 was immediately subjected to open field test and the index of spontaneous locomotion was expressed as total travel distance measured within the defined time frame.
as §2

Assay [4] has as its target hDAAO (human DAAO) (Homo sapiens (Human), UniProt P14920). Briefly: hDAAO (human DAAO) activity, D-serine substrate, Amplex Red fluorescence. The class given is biochemical. As to the method:
The hDAAO (human DAAO) activity was measured by using D-serine as a substrate to produce H2O2. The produced H2O2 would be oxidized by peroxidase, and the produced free radicals would further react with Amplex Red reagent to emit fluorescence. The intensity of fluorescence at 590 nm would be measured to represent the activity of hDAAO. All compounds were dissolved in DMSO. Each compound was diluted with DMSO in 3-fold serial dilution to create a 9-point dose response curve. Each sample was added in triplicate, 1 μL/well, into 96-well black plates. Positive control wells were added with 1 μL of DMSO. Then 49 μL of assay buffer (100 mM Tris-HCl, pH 8.5) containing 1.2 ng/mL hDAAO, 900 nM FAD, 0.2 units/mL HRP, and 100 μM Amplex Red was added to each well of the plate using a multichannel pipette. Next, 50 μL of 100 mM D-Serine in assay buffer was added. The reaction plates were then incubated in the dark at room temperature. The fluorescence readout was detected at 0 and 20 minute by Molecular Device Gemini EM fluorescence reader using the following settings: excitation filter 530 nm, and emission filter 590 nm. The percentage of inhibition values for each well was calculated with the following equation: The percentage of inhibition=(fluorescencesample, 20 min−fluorescencesample, 0 min)/(fluorescenceDMSO, 20 min−fluorescenceDMSO, 0 min)×100%
The nonlinear curve fitting model in GraphPad Prism 5 was used to calculate IC50 value for each compound.

hDAAO (human DAAO), sequence (P14920 whole entry): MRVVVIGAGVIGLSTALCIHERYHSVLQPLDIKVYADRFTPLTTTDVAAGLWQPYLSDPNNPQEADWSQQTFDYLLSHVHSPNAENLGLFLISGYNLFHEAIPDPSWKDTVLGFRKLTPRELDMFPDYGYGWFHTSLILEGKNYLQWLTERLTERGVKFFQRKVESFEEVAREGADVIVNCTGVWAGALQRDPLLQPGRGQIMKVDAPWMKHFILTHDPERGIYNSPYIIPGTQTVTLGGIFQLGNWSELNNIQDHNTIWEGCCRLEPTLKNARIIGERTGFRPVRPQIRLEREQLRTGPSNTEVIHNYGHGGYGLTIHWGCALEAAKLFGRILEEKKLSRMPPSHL

`O=C(Oc1coc(CO)cc1=O)c1ccc[nH]1` [Compound 1, 6-(hydroxymethyl)-4-oxo-4H-pyran-3-yl 1H-pyrrole-2-carboxylate]: in assay [1], the “percentage of pre-pulse inhibition compared to control group” value is “the same level of pre-pulse inhibition percentage; also recorded: rescued/protected the MK801-induced PPI deficits”. In assay [2], the “locomotion activity in open field task compared to control group” value is “equal level of locomotion activity as mice in the control group; also recorded: reversed/protected MK801-induced hyper-locomotion activity”. The “spontaneous locomotion (total travel distance) versus vehicle” value in assay [3] is “no significant difference between groups”. For the same compound, in assay [4], the half-inhibitory concentration (IC50) (in general, the point on the concentration scale where inhibition reaches its midpoint) lay in the range of 100 to 500 µM.
Take `C[C@]12N[C@H](Cc3ccccc31)c1ccccc12` [MK801, reference compound]: the “percentage of pre-pulse inhibition compared to control group” value in assay [1] is “lower percentage of pre-pulse inhibition”. Also, the “locomotion activity in open field task compared to control group” value in assay [2] was “displayed hyper-locomotion”.
